{"source": "paper PMC4447944", "about": "(The Journal of Biological Chemistry, 2015)", "key": {"[1]": {"target": "T1, hADCK3 (Homo sapiens, UniProt Q8NI60)", "T1 construct": "purchased DiscoverX", "T1 sequence (Q8NI60 163-647)": "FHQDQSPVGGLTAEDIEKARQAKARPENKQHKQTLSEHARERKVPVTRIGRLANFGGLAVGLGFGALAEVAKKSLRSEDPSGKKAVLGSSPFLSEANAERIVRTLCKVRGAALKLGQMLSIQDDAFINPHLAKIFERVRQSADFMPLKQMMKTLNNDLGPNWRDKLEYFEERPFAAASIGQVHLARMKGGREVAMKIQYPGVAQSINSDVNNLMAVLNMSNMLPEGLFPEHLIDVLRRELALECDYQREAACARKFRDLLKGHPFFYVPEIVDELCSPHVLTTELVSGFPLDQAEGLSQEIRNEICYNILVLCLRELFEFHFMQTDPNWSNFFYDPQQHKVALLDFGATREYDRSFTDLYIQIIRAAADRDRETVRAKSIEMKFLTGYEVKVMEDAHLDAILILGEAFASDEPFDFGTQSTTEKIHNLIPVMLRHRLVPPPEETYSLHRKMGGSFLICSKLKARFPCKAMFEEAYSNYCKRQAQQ", "assay": "KINOMEscan", "type": "binding"}, "[2]": {"target": "T2, hCSNK1D (Homo sapiens, UniProt P48730)", "T2 construct": "purchased DiscoverX (KINOMEscan platform)", "assay": "KINOMEscan", "type": "binding"}, "[3]": {"target": "T3, hFAK (Homo sapiens, UniProt Q05397)", "T3 construct": "purchased DiscoverX", "assay": "KINOMEscan", "type": "binding"}, "[4]": {"target": "T4, hMAPKAPK5 (Homo sapiens, UniProt Q8IW41)", "T4 construct": "purchased DiscoverX", "assay": "KINOMEscan", "type": "binding"}, "[5]": {"target": "T5, hJNK3 (Homo sapiens, UniProt P53779)", "T5 construct": "purchased DiscoverX (KINOMEscan panel)", "assay": "KINOMEscan", "type": "binding"}, "[6]": {"target": "T6, hYANK1 (Homo sapiens, UniProt Q8WU08)", "T6 construct": "purchased DiscoverX", "assay": "KINOMEscan", "type": "binding"}, "[7]": {"target": "T7, hMET (Homo sapiens, UniProt P08581)", "T7 construct": "purchased DiscoverX", "assay": "KINOMEscan", "type": "binding"}, "[8]": {"target": "hD2L (Homo sapiens, UniProt P14416)", "sequence (P14416 whole entry)": "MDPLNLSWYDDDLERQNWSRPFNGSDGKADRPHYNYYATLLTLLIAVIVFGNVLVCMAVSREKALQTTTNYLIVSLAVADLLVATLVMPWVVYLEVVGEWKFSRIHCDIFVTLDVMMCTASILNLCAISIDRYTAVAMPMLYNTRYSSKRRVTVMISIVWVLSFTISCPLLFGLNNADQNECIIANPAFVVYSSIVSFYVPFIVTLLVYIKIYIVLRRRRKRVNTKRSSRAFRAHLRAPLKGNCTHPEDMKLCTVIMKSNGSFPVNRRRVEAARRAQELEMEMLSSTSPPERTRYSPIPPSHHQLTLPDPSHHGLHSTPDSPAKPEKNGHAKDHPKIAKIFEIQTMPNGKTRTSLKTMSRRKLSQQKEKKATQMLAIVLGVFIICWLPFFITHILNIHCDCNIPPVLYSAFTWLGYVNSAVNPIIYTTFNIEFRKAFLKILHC", "assay": "β-arrestin Antagonist (Eurofins-CEREP)", "details": "read-out: % Effect, Inhibition"}, "[9]": {"target": "T8, hICK (Homo sapiens, UniProt Q9UPZ9)", "T8 construct": "purchased DiscoverX (KINOMEscan panel)", "assay": "KINOMEscan", "type": "binding"}, "[10]": {"target": "T9, hGCN2(Kin.Dom.2,S808G) (Homo sapiens, UniProt Q9P2K8, S808G)", "T9 construct": "hGCN2(Kin.Dom.2,S808G); purchased DiscoverX", "assay": "KINOMEscan", "type": "binding"}, "[11]": {"target": "T10, hKIT(V559D,T670I) (Homo sapiens, UniProt P10721, T670I/V559D)", "T10 construct": "purchased DiscoverX (KINOMEscan platform)", "assay": "KINOMEscan", "type": "binding"}, "[12]": {"target": "SMYD2 (Homo sapiens, UniProt Q9NRG4)", "sequence (Q9NRG4 whole entry)": "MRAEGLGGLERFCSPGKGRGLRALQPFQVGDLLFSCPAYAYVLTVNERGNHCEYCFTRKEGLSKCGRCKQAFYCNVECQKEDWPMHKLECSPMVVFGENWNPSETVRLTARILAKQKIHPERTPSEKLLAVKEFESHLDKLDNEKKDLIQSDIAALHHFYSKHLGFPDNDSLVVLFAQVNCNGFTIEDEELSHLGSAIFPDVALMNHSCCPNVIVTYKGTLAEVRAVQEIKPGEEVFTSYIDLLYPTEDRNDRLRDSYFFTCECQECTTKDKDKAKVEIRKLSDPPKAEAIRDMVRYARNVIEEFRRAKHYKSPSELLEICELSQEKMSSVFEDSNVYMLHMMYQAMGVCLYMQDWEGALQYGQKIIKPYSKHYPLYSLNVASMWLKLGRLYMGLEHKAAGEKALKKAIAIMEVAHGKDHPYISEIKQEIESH", "assay": "Thermal denaturation fluorometry (differential scanning fluorometry)", "type": "binding", "details": "100 μM LLY-507", "protocol": "SMYD2 protein unfolding was monitored on a 384-well Roche Lightcycler480 II^TM RT-PCR machine using SYPRO® Orange as a reporter dye (Invitrogen, S6651). Excitation and emission filters were set at 465 and 580 nm, respectively; the temperature was continuously ramped from 25 to 95 °C at a rate of 0.11°C/s. The reaction mixture (6 μl/well) contained 3.9 μM SMYD2 protein and 100 μM compound in 20 mM Tris, pH 8.0, 150 mM NaCl, 10% glycerol, 2 mM tris(2-carboxyethyl)phosphine (TCEP), and 1% DMSO buffer. Triplicates were run along with protein without compound as a negative control."}, "[13]": {"target": "T11, hROCK1 (Homo sapiens, UniProt Q13464)", "T11 construct": "purchased DiscoverX (KINOMEscan platform)", "assay": "KINOMEscan", "type": "binding"}, "[14]": {"target": "T12, hLZK (Homo sapiens, UniProt O43283)", "T12 construct": "purchased DiscoverX (KINOMEscan platform)", "assay": "KINOMEscan", "type": "binding"}, "[15]": {"target": "T13, hADRα1A (Homo sapiens, UniProt P35348)", "T13 sequence (P35348 1-466)": "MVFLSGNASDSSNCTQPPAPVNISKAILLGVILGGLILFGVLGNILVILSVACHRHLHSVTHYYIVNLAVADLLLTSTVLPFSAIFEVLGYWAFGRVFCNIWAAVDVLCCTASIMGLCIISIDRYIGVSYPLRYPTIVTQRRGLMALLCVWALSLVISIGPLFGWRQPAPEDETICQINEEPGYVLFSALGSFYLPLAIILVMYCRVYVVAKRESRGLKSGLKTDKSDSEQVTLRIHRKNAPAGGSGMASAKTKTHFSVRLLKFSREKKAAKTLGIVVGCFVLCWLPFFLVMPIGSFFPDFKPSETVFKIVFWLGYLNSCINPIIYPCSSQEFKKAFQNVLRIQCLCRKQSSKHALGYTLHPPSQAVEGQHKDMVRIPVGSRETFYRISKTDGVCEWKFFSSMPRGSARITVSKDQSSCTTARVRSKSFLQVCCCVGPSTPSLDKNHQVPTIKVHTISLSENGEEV", "assay": "Calcium Mobilization Agonist (Eurofins-CEREP)", "details": "@ 13.3 μM"}, "[16]": {"target": "T14, hBRSK1 (Homo sapiens, UniProt Q8TDC3)", "T14 construct": "purchased DiscoverX", "assay": "KINOMEscan", "type": "binding"}, "[17]": {"target": "T15, hFLT3(K663Q) (Homo sapiens, UniProt P36888, K663Q)", "T15 construct": "purchased DiscoverX", "assay": "KINOMEscan", "type": "binding"}, "[18]": {"target": "T16, hRPS6KA5(Kin.Dom.1-N-term) (Homo sapiens, UniProt O75582)", "T16 construct": "hRPS6KA5(Kin.Dom.1-N-term); purchased DiscoverX (KINOMEscan platform)", "T16 sequence (O75582 49-318 limits assumed)": "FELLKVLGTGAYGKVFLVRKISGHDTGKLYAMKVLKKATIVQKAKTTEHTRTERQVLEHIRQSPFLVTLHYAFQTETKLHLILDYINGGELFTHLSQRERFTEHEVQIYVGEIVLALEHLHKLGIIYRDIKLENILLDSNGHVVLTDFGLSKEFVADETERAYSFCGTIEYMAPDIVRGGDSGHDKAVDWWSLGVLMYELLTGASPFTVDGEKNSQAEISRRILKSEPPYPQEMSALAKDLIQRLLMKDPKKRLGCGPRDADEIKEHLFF", "assay": "KINOMEscan", "type": "binding"}, "[19]": {"target": "T17, hGSK3A (Homo sapiens, UniProt P49840)", "T17 construct": "purchased DiscoverX", "assay": "KINOMEscan", "type": "binding"}, "[20]": {"target": "T18, hFLT3(D835Y) (Homo sapiens, UniProt P36888, D835Y)", "T18 construct": "purchased DiscoverX", "assay": "KINOMEscan", "type": "binding"}, "[21]": {"target": "T19, hDMPK2 (Homo sapiens, UniProt Q6DT37)", "T19 construct": "purchased DiscoverX (KINOMEscan platform)", "assay": "KINOMEscan", "type": "binding"}, "[22]": {"target": "hOPRm1 (Homo sapiens, UniProt P35372)", "sequence (P35372 whole entry)": "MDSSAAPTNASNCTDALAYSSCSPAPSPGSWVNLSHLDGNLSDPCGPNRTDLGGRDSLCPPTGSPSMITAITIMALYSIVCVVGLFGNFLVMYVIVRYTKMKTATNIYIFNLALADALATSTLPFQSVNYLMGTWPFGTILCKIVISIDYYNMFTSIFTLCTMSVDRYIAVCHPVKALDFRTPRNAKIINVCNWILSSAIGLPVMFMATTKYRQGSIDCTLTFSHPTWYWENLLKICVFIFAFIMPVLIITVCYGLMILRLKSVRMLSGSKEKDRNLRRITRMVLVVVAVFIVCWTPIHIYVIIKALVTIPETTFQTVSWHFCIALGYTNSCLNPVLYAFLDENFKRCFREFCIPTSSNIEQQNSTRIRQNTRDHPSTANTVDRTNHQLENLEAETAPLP", "assay": "cAMP Agonist (Eurofins-CEREP)", "details": "@ 1 μM"}, "[23]": {"target": "T20, hCSNK1A1 (Homo sapiens, UniProt P48729)", "T20 construct": "purchased DiscoverX (KINOMEscan platform)", "assay": "KINOMEscan", "type": "binding"}, "[24]": {"target": "T21, hTRPM6 (Homo sapiens, UniProt Q9BX84)", "T21 construct": "purchased DiscoverX", "assay": "KINOMEscan", "type": "binding"}, "[25]": {"target": "T22, hS6K1 (Homo sapiens, UniProt P23443)", "T22 construct": "purchased DiscoverX (KINOMEscan platform)", "assay": "KINOMEscan", "type": "binding"}, "[26]": {"target": "T23, hACVRL1 (Homo sapiens, UniProt P37023)", "T23 construct": "purchased DiscoverX (KINOMEscan platform)", "T23 sequence (P37023 22-503)": "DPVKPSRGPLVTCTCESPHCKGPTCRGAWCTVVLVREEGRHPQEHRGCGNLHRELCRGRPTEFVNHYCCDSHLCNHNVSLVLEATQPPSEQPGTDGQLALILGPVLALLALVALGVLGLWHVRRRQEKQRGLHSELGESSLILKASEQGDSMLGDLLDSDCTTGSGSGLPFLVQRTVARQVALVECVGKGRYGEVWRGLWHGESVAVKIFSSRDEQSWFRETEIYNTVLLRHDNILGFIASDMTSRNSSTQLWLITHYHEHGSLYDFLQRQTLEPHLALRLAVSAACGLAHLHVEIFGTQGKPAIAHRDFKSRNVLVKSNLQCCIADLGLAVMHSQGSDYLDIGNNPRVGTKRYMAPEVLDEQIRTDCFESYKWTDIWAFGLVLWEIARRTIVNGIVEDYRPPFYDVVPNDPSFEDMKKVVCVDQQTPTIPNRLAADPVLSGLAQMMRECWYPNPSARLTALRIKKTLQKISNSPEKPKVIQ", "assay": "KINOMEscan", "type": "binding"}, "[27]": {"target": "T24, hTRKB (Homo sapiens, UniProt Q16620)", "T24 construct": "purchased DiscoverX", "T24 sequence (Q16620 32-822)": "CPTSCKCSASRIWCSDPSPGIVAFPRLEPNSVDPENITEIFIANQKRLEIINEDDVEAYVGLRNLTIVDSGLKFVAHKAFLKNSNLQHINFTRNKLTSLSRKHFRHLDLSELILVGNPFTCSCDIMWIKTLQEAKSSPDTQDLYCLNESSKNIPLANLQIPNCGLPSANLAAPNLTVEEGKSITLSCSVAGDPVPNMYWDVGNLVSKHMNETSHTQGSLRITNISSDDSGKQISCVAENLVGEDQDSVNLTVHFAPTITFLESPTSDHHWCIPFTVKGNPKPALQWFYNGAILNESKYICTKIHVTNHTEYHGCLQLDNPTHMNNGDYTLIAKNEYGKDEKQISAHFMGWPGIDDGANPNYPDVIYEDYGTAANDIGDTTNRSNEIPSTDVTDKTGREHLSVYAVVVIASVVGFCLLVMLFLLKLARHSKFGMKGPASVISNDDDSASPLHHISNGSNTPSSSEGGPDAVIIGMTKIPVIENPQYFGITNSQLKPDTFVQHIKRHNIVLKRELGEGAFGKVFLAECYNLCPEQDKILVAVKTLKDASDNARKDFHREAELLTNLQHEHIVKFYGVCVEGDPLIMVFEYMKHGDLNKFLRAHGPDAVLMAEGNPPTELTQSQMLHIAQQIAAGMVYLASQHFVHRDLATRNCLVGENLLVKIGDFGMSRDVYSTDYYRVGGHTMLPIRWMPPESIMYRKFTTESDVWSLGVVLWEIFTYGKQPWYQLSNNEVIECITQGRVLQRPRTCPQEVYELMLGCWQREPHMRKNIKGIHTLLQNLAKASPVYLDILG", "assay": "KINOMEscan", "type": "binding"}, "[28]": {"target": "T25, hFLT3(R834Q) (Homo sapiens, UniProt P36888, R834Q)", "T25 construct": "purchased DiscoverX", "assay": "KINOMEscan", "type": "binding"}, "[29]": {"target": "T26, hIRAK1 (Homo sapiens, UniProt P51617)", "T26 construct": "purchased DiscoverX (KINOMEscan panel)", "T26 sequence (P51617 whole entry)": "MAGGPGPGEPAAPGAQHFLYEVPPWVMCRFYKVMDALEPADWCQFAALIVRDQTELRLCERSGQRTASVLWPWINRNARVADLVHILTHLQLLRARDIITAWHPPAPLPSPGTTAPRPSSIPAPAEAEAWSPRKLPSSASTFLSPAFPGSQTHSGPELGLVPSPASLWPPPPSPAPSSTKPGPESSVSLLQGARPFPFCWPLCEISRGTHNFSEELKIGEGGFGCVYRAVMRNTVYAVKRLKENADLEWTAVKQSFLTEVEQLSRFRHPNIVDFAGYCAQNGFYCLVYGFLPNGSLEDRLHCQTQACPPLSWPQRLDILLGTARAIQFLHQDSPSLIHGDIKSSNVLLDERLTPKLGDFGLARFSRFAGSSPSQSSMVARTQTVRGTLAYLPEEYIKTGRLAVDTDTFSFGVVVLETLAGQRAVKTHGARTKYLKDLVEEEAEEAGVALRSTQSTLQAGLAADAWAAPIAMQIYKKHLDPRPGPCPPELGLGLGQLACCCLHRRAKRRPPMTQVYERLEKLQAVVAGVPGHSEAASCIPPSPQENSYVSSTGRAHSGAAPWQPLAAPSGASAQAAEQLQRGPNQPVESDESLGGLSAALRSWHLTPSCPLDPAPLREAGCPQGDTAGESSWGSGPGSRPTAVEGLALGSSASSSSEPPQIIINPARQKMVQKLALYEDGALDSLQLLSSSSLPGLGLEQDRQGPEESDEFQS", "assay": "KINOMEscan", "type": "binding"}, "[30]": {"target": "T27, hEPHA8 (Homo sapiens, UniProt P29322)", "T27 construct": "purchased DiscoverX", "T27 sequence (P29322 28-1005)": "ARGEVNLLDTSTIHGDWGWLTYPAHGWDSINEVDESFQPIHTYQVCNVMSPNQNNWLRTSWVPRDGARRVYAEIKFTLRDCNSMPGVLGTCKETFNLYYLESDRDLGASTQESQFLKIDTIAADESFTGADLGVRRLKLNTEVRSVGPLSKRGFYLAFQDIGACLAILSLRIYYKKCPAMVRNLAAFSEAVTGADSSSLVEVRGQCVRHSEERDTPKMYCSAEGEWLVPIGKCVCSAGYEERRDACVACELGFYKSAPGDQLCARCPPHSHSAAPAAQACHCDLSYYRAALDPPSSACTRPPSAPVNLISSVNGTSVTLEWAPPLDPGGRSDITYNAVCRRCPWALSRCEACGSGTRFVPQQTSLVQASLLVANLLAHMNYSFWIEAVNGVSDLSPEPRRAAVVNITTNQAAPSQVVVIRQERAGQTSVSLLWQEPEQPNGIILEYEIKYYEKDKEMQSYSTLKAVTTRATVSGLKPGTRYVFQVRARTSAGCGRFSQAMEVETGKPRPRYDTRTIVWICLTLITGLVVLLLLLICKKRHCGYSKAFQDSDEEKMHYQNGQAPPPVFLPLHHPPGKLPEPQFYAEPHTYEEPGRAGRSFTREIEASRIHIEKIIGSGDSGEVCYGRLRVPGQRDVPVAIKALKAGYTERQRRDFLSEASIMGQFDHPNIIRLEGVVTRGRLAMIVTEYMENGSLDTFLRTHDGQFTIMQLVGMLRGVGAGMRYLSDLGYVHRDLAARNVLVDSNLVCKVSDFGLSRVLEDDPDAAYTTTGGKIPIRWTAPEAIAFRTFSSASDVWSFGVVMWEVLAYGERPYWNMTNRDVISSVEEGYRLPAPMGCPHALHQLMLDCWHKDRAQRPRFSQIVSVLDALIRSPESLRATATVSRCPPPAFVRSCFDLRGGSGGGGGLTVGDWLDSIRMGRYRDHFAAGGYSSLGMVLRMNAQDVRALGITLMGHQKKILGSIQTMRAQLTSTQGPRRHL", "assay": "KINOMEscan", "type": "binding"}}, "data": [{"molecule": "Cc1cn(CCN2CCN(c3ccccc3-c3cc(C#N)cc(C(=O)NCCCN4CCCC4)c3)CC2)c2ccccc12", "note": "[LLY-507, 3-cyano-5-{2-[4-[2-(3-methylindol-1-yl)ethyl]piperazin-1-yl]-phenyl}-N-[(3-pyrrolidin-1-yl)propyl]benzamide]", "values": [{"measurement": "IC50", "setting": "[1]", "value": "> 20", "unit": "µM"}, {"measurement": "IC50", "setting": "[2]", "value": "> 20", "unit": "µM"}, {"measurement": "IC50", "setting": "[3]", "value": "> 20", "unit": "µM"}, {"measurement": "IC50", "setting": "[4]", "value": "> 20", "unit": "µM"}, {"measurement": "IC50", "setting": "[5]", "value": "> 20", "unit": "µM"}, {"measurement": "IC50", "setting": "[6]", "value": "> 20", "unit": "µM"}, {"measurement": "IC50", "setting": "[7]", "value": "> 20", "unit": "µM"}, {"measurement": "inhibition at 10 µM", "setting": "[8]", "value": 29.8, "unit": "%"}, {"measurement": "IC50", "setting": "[9]", "value": "> 20", "unit": "µM"}, {"measurement": "IC50", "setting": "[10]", "value": "> 20", "unit": "µM"}, {"measurement": "IC50", "setting": "[11]", "value": "> 20", "unit": "µM"}, {"measurement": "increase in thermal stability of SMYD2", "setting": "[12]", "value": 5, "unit": "°C"}, {"measurement": "Tm of SMYD2 in presence of compound", "setting": "[12]; SMYD2 alone Tm = 49 °C", "value": 54, "unit": "°C"}, {"measurement": "IC50", "setting": "[13]", "value": "> 20", "unit": "µM"}, {"measurement": "IC50", "setting": "[14]", "value": "> 20", "unit": "µM"}, {"measurement": "% Effect, Stimulation", "setting": "[15]", "value": -1.9, "unit": "%"}, {"measurement": "IC50", "setting": "[16]", "value": "> 20", "unit": "µM"}, {"measurement": "IC50", "setting": "[17]", "value": "> 20", "unit": "µM"}, {"measurement": "IC50", "setting": "[18]", "value": "> 20", "unit": "µM"}, {"measurement": "IC50", "setting": "[19]", "value": "> 20", "unit": "µM"}, {"measurement": "IC50", "setting": "[20]", "value": "> 20", "unit": "µM"}, {"measurement": "IC50", "setting": "[21]", "value": "> 20", "unit": "µM"}, {"measurement": "% Effect, Stimulation", "setting": "[22]", "value": 7.4, "unit": "%"}, {"measurement": "IC50", "setting": "[23]", "value": "> 20", "unit": "µM"}, {"measurement": "IC50", "setting": "[24]", "value": "> 20", "unit": "µM"}, {"measurement": "IC50", "setting": "[25]", "value": "> 20", "unit": "µM"}, {"measurement": "IC50", "setting": "[26]", "value": "> 20", "unit": "µM"}, {"measurement": "IC50", "setting": "[27]", "value": "> 20", "unit": "µM"}, {"measurement": "IC50", "setting": "[28]", "value": "> 20", "unit": "µM"}, {"measurement": "IC50", "setting": "[29]", "value": "> 20", "unit": "µM"}, {"measurement": "IC50", "setting": "[30]", "value": "> 20", "unit": "µM"}]}]}
